Data reported in patent publication US20240279204A1, “NOVEL DIPHENAZINE COMPOUND, AND USE THEREOF FOR PREVENTING OR TREATING CANCER OR NEUROINFLAMMATORY DISEASES” (KOREA INSTITUTE OF OCEAN SCIENCE & TECHNOLOGY, priority 2021, published 2024).
Read-outs that look alike come from different tables or passages of the source.

Assays:
MDA-MB-231 (breast) = assay: SRB cytotoxicity assay, MDA-MB-231; assay type: cell-based, human
Protocol: (§1) A cytotoxicity test was evaluated using sulforhodamine B (SRB) assay on six human cancer cell lines. Human cancer cell lines, ACHN (kidney), NCI-H23 (lung), PC-3 (prostate), NUGC-3 (stomach), MDA-MB-231 (breast), and HCT-15 (colon) were purchased from American Type Culture Collection (ATCC). Cells were cultured in a RPMI 1640 medium added with 10% fetal bovine serum (FBS) at 37° C. in a 5% CO2 incubator. The cells (8×10^3 cells/well) were dispensed into a 96-well plate, cultured for one day, and then treated with Compounds 1-8 dissolved in 0.1% DMSO, (R)-(6-(1-((2-aminobenzoyl)oxy)ethyl)phenazine-1-carboxylic acid as Compound 9, and adriamycin as a positive control group. The cells were cultured for 48 hours, fixed with 50% trichloroacetic acid ([…]) and stained with 0.4% surfohodamine B dissolved in 1% acetic acid. Non-stained cells were removed by washing with 1% acetic acid, and cells bound to a protein were extracted with 10 mM Tris base (pH 10.5) to measure the optical density. Absorbance was measured at 540 nm using a microplate reader, and GI50 values were calculated using GraphPad Prism 4.0.

HCT-15 (colon) = assay: SRB cytotoxicity assay, HCT-15; assay type: cell-based, human
Protocol: as §1

NUGC-3 (stomach) = assay: SRB cytotoxicity assay, NUGC-3; assay type: cell-based, human; conditions: for GI50: SRB assay, 48 hours
Protocol: as §1

ACHN (kidney) = assay: SRB cytotoxicity assay, ACHN; assay type: cell-based, human; conditions: 48 hours
Protocol: as §1

PC-3 (prostate) = assay: SRB cytotoxicity assay, PC-3; assay type: cell-based, human; conditions: 48 hours
Protocol: as §1

NCI-H23 (lung) = assay: SRB cytotoxicity assay, NCI-H23; assay type: cell-based, human
Protocol: as §1

[1] = test system: LPS-induced BV-2 microglia; assay: NO generation inhibition in LPS-induced BV-2 microglia (Griess reagent); assay type: cell-based; conditions: compound 1 hour then LPS 200 ng/mL for 24 hours, nitrite by Griess reagent, read-out: IC50 (μM), NO generation inhibitory activity by activated microglia
Protocol: (§2) NO generation to confirm anti-brain neuroinflammatory activity was evaluated by measuring a nitrite concentration in the medium using a Griess reagent, and the cell viability was evaluated using MTT assay. Briefly, BV-2 microglia were cultured in a Dulbecco's modified Eagle's medium (DMEM) supplemented with 5% heat-inactivated FBS and 50 µg/mL of penicillin-streptomycin in a 5% CO2 incubator at 37° C. A 96-well plate dispensed with pre-cultured cells (2.5×10^4 cells/mL) was treated with compounds at various concentrations (10, 20, 50, and 100 μM) for 1 hour, and treated with LPS (200 ng/mL) and cultured for 24 hours. The supernatant was mixed with a Griess reagent and cultured at room temperature for 10 minutes. The nitrite concentration was determined using a sodium nitrite standard solution prepared in a cell culture medium. Absorbance was measured at a wavelength of 540 nm with a microplate reader. To evaluate the cell viability, the 96-well plate dispensed with cells (2.5×10^4 cells/mL) was treated with compounds at various concentrations (10, 20, 50, and 100 μM) for 1 hour, and treated with LPS (200 ng/mL) and cultured for 24 hours. An MTT solution (0.5 mg/mL) was added to each well and cultured at 37° C. for 4 hours. The supernatant was removed, and the formed formazan crystals were dissolved in DMSO. The absorbance was measured at 550 nm using a microplate reader. To determine the IC50 value of Compound 6, NO generation and MTT assay were performed in the same manner as described above, only with different concentrations (0.25, 0.5, and 1 μM) (Table 4). The experiment was repeated 3 times.

BV-2 microglia = assay: Cell viability of BV-2 microglia (MTT assay); assay type: cell-based; conditions: LPS 200 ng/mL, 24 hours
Protocol: as §2, with “To determine the IC50 value of Compound 6, NO generation and MTT assay were performed in the same manner as described above, only with different concentrations (0.25, 0.5, and 1 μM) (Table 4). The experiment was repeated 3 times.” left out

[2] = Homo sapiens, MDA-MB-231, 48 hours
[3] = Homo sapiens, NUGC-3, read-out: GI50, NUGC-3
[4] = Homo sapiens, NCI-H23, 48 hours

| SMILES | GI50 (MDA-MB-231 (breast); [2]) [µM] | GI50 (HCT-15 (colon); Homo sapiens, HCT-15, 48 hours) [µM] | GI50 (NUGC-3 (stomach); [3]) [µM] | GI50 (ACHN (kidney); Homo sapiens, ACHN) [µM] | GI50 (PC-3 (prostate); Homo sapiens) [µM] | GI50 (NCI-H23 (lung); [4]) [µM] | IC50 ([1]; Mus musculus) [µM] | GI50 (NUGC-3 (stomach); Homo sapiens, NUGC-3, read-out: GI50 value, gastric cancer cells NUGC-3) [µM] | cytotoxicity stronger than Adriamycin, NUGC-3 (NUGC-3 (stomach); ratio of GI50 versus Adriamycin) [times] | cytotoxicity in cell viability test (BV-2 microglia) | GI50 (MDA-MB-231 (breast); 48 hours) [µM] | GI50 (HCT-15 (colon); 48 hours) [µM] | IC50 [1] [µM] | GI50 (NUGC-3 (stomach); read-out: GI50, NUGC-3) [µM] | GI50 (ACHN (kidney)) [µM] | GI50 (PC-3 (prostate)) [µM] | GI50 (NCI-H23 (lung); 48 hours) [µM] |
| --- | --- | --- | --- | --- | --- | --- | --- | --- | --- | --- | --- | --- | --- | --- | --- | --- | --- |
| COc1cccc2c1C(=O)c1c(O)c3c(c(O)c1C2=O)C[C@@](O)(C(=O)CO)C[C@@H]3O[C@H]1C[C@H](N)[C@H](O)[C@H](C)O1 [ADR, Adriamycin, reference compound] | 0.15 | 0.17 | 0.15 | 0.17 | 0.16 | 0.16 | – | – | – | – | – | – | – | – | – | – | – |
| C[C@H](c1cccc2nc3c(C(=O)O)cccc3nc12)c1ccc(C(=O)O)c2nc3cccc([C@@H](C)O)c3nc12 [Compound 1, 4-((R)-1-(6-carboxyphenazin-1-yl)ethyl)-6-((R)-1-hydroxyethyl)phenazine-1-carboxylic acid] | > 10 | > 10 | > 10 | > 10 | > 10 | > 10 | 166 | – | – | – | – | – | – | – | – | – | – |
| C[C@@H](c1cccc2nc3c(C(=O)O)cccc3nc12)c1ccc(C(=O)O)c2nc3cccc([C@@H](C)O)c3nc12 [Compound 2, 4-((S)-1-(6-carboxyphenazin-1-yl)ethyl)-6-((R)-1-hydroxyethyl)phenazine-1-carboxylic acid] | > 10 | > 10 | > 10 | > 10 | > 10 | > 10 | 90.2 | – | – | – | – | – | – | – | – | – | – |
| CC(=O)c1cccc2nc3c(C(=O)O)ccc([C@H](C)c4cccc5nc6c(C(=O)O)cccc6nc45)c3nc12 [Compound 3, (R)-6-acetyl-4-(1-(6-carboxyphenazin-1-yl)ethyl)phenazine-1-carboxylic acid] | > 10 | > 10 | > 10 | > 10 | > 10 | > 10 | 34.7 | – | – | – | – | – | – | – | – | – | – |
| C[C@@H](c1cc(C(=O)O)c2nc3cccc([C@@H](C)O)c3nc2c1)c1cccc2nc3c(C(=O)O)cccc3nc12 [Compound 4, 3-((S)-1-(6-carboxyphenazin-1-yl)ethyl)-6-((R)-1-hydroxyethyl)phenazine-1-carboxylic acid] | > 10 | > 10 | > 10 | > 10 | > 10 | > 10 | 126 | – | – | – | – | – | – | – | – | – | – |
| C[C@H](c1cc([C@@H](C)O)c2nc3cccc(C(=O)O)c3nc2c1)c1cccc2nc3c(C(=O)O)cccc3nc12 [Compound 5, 8-((R)-1-(6-carboxyphenazin-1-yl)ethyl)-6-((R)-1-hydroxyethyl)phenazine-1-carboxylic acid] | > 10 | > 10 | > 10 | > 10 | > 10 | > 10 | 27.4 | – | – | – | – | – | – | – | – | – | – |
| C[C@@H](O)c1cccc2nc3c(C(=O)O[C@H](C)c4cccc5nc6c(C(=O)O)cccc6nc45)cccc3nc12 [Compound 6, 6-((R)-1-((6-((R)-1-hydroxyethyl)phenazine-1-carbonyl)oxy)ethyl)phenazine-1-carboxylic acid] | 0.0096 | 0.0096 | 0.0077 | 0.0135 | 0.0096 | 0.0096 | 0.3 | 0.0077 | 19 | strong cytotoxicity up to a concentration of 1 μM | – | – | – | – | – | – | – |
| CC(=O)c1cccc2nc3c(C(=O)O[C@H](C)c4cccc5nc6c(C(=O)O)cccc6nc45)cccc3nc12 [Compound 7, (R)-6-(1-((6-acetylphenazine-1-carbonyl)oxy)ethyl)phenazine-1-carboxylic acid] | 0.0523 | 0.0601 | 0.0349 | 0.0717 | 0.0465 | 0.0426 | – | – | – | – | – | – | – | – | – | – | – |
| C[C@@H](O)c1cccc2nc3c(C(=O)O)cccc3nc12 [Compound 8, (R)-Saphenic acid] | – | – | – | – | – | – | – | – | – | – | > 10 | > 10 | 16.3 | > 10 | > 10 | > 10 | > 10 |
| C[C@@H](OC(=O)c1ccccc1N)c1cccc2nc3c(C(=O)O)cccc3nc12 [Compound 9] | – | – | – | – | – | – | – | – | – | – | > 10 | > 10 | 23.5 | > 10 | > 10 | > 10 | > 10 |
